Like-named read-outs stand apart in the source and are kept apart here.
How the values were obtained:
[1] = target: T1, M3 (Homo sapiens, UniProt P20309); assay: competitive radioligand binding, HEK293 membranes
T1 construct: gene CHRM3; full-length receptor; HEK293 with TRUPATH sensors (function)
Excerpt: competitive radioligand binding, HEK293 membranes on M3

[2] = target: T1, M3; assay: TRUPATH BRET2 G protein dissociation, HEK293; format: cell-based; conditions: HBSS, […] HEPES pH […] °C; agonist mode
[3] = target: T2, CHRM5 (Homo sapiens, UniProt P08912); assay: cell-based; parameters: species or system HEK293; Fluo-4 Direct calcium mobilization on FLIPR-Tetra; conditions: Assay=Calcium, agonist mode, % of control agonist
T2 sequence (P08912 1-532): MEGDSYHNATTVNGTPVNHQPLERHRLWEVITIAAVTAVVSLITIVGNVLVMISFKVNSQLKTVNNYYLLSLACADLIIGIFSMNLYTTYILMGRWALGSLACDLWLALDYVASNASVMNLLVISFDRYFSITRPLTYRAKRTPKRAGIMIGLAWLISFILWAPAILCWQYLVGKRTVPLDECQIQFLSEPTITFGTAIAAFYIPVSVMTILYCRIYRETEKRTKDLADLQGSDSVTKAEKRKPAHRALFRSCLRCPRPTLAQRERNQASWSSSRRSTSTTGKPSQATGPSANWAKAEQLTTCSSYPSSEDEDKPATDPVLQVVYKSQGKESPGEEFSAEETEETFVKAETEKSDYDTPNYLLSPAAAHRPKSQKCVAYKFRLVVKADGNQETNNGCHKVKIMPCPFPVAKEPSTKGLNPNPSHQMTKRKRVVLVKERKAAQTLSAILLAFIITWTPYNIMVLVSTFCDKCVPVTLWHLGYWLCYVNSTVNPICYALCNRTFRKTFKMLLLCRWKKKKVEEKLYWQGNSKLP

[4] = target: T3, CHRM1 (Homo sapiens, UniProt P11229); assay: cell-based; parameters: species or system HEK293; Fluo-4 Direct calcium mobilization on FLIPR-Tetra; conditions: Assay=Calcium, agonist mode, % of control agonist
T3 sequence (P11229 1-460): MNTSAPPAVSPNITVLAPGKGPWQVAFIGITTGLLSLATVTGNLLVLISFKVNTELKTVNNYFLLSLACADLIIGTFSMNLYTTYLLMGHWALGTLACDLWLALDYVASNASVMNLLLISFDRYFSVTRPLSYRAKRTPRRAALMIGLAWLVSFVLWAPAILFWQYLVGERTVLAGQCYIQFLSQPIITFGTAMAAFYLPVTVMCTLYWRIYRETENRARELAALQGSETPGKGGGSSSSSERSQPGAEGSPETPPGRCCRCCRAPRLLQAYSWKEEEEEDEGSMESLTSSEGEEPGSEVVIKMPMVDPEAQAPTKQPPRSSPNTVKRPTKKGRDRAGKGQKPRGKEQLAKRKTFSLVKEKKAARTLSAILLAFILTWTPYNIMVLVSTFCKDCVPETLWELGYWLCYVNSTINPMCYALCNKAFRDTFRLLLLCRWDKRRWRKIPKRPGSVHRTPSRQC

[5] = target: CHRM3 (Homo sapiens, UniProt P20309); assay: cell-based; parameters: species or system HEK293; Fluo-4 Direct calcium mobilization on FLIPR-Tetra; conditions: Assay=Calcium, agonist mode, % of control agonist
CHRM3, sequence (P20309 whole entry): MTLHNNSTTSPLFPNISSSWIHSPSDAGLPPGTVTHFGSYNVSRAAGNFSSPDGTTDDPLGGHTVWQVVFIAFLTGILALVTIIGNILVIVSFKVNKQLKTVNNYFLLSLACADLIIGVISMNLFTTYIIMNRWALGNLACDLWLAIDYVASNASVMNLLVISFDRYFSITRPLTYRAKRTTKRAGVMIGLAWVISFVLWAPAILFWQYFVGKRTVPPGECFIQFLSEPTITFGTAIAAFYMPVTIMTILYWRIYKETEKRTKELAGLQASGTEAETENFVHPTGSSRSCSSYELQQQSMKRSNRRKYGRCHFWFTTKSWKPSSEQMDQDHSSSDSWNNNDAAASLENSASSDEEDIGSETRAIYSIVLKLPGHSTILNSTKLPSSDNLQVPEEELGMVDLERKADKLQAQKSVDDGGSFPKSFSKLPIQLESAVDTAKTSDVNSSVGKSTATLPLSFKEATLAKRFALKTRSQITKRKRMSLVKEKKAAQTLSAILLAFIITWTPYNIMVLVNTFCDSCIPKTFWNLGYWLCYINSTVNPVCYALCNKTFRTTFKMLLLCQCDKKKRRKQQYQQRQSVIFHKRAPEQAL

[6] = target: T4, 5-HT1B (Homo sapiens, UniProt P28222); assay: competitive radioligand binding, HEK293 membranes
T4 construct: gene HTR1B; full-length receptor; HEK293 cell membranes
T4 sequence (P28222 whole entry): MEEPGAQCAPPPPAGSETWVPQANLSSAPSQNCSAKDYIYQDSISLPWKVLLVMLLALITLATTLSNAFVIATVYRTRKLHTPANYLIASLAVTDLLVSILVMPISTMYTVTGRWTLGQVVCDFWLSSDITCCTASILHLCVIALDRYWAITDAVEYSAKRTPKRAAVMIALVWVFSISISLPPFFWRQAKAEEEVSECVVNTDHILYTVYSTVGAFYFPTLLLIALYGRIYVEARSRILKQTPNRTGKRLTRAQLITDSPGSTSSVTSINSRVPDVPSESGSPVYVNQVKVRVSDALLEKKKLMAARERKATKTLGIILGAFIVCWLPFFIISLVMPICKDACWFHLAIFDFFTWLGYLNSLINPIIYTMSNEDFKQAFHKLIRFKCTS
Excerpt: competitive radioligand binding, HEK293 membranes on 5-HT1B

[7] = target: T5, H1 (Homo sapiens, UniProt P35367); assay: competitive radioligand binding, HEK293 membranes
T5 construct: gene HRH1; full-length receptor; HEK293 cell membranes
T5 sequence (P35367 whole entry): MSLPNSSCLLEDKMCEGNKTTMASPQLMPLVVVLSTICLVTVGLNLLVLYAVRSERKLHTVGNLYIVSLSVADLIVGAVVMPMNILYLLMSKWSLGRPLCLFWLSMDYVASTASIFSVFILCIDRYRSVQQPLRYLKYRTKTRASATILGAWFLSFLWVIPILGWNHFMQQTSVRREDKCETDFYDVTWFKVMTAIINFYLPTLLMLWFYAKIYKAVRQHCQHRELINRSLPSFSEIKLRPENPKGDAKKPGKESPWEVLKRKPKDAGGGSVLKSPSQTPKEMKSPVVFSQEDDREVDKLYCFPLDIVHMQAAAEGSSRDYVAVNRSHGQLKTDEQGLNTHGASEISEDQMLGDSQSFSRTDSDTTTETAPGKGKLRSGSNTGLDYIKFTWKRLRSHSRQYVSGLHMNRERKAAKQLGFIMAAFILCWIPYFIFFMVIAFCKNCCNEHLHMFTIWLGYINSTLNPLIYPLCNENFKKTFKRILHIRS
Excerpt: competitive radioligand binding, HEK293 membranes on H1

[8] = target: HRH4 (Homo sapiens, UniProt Q9H3N8); assay: cell-based; parameters: species or system HEK293; TRUPATH BRET2 G-protein dissociation; antagonist mode against agonist EC80; conditions: agonist mode, % of control agonist
HRH4, sequence (Q9H3N8 whole entry): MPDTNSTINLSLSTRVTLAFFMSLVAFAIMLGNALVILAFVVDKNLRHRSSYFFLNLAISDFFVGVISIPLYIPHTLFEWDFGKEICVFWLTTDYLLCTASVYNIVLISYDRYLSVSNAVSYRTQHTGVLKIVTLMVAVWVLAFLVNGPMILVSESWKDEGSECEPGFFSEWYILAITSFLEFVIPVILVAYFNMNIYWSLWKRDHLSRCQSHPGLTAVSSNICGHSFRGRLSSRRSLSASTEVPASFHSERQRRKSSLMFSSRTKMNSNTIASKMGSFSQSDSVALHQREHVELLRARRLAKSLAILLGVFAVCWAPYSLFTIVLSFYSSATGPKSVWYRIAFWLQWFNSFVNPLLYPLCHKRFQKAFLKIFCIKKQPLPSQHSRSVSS

[9] = target: HRH3 (Homo sapiens, UniProt Q9Y5N1); assay: cell-based; parameters: species or system HEK293; TRUPATH BRET2 G-protein dissociation; antagonist mode against agonist EC80; conditions: agonist mode, % of control agonist
HRH3, sequence (Q9Y5N1 whole entry): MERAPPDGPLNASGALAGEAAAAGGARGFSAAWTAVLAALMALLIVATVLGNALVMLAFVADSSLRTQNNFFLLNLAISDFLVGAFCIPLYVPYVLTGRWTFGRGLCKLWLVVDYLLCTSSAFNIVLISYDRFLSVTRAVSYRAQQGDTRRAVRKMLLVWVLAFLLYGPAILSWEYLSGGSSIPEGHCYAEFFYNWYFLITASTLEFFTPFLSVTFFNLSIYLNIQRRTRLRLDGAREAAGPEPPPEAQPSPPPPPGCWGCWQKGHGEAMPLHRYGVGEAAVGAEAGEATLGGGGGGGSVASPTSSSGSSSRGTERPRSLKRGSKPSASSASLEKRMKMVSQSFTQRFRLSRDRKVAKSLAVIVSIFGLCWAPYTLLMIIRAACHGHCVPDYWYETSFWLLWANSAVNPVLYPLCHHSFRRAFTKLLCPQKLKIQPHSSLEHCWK

[10] = target: T6, CHRM2 (Homo sapiens, UniProt P08172); assay: cell-based; parameters: species or system HEK293; TRUPATH BRET2 G-protein dissociation; antagonist mode against agonist EC80; conditions: agonist mode, % of control agonist
T6 sequence (P08172 1-466): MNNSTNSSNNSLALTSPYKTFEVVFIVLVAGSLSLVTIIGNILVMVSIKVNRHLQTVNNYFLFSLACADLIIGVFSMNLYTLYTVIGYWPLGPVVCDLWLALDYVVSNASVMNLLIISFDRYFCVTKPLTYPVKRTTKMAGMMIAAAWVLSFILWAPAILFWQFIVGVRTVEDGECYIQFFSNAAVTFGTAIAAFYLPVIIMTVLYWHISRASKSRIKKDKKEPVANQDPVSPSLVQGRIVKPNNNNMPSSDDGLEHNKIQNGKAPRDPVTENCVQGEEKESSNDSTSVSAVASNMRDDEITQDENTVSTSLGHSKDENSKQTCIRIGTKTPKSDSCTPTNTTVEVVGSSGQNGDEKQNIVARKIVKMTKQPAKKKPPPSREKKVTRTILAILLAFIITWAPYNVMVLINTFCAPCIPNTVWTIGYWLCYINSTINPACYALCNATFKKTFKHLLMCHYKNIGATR

[11] = HEK293, read-out: N-Desmethyl Xanomeline
[12] = HEK293, read-out: N-Desmethyl Xanomeline, Assay=Gi1
[13] = HEK293, read-out: N-Desmethyl Xanomeline, Assay=Gi2
[14] = HEK293, read-out: N-Desmethyl Xanomeline, Assay=Gi3
[15] = HEK293, read-out: N-Desmethyl Xanomeline, Assay=GoA
[16] = HEK293, read-out: N-Desmethyl Xanomeline, Assay=GoB
[17] = HEK293, read-out: Xanomeline, Assay=Gi1
[18] = HEK293, read-out: Xanomeline, Assay=Gi2
[19] = HEK293, read-out: Xanomeline, Assay=Gi3
[20] = HEK293, read-out: Xanomeline, Assay=GoA
[21] = HEK293, read-out: Xanomeline, Assay=GoB

T1 sequence (P20309 whole entry): as the sequence (P20309 whole entry) above

CCCCCCOc1nsnc1C1=CCCNC1 [N-desmethylxanomeline]
Ki [1]: 0.112 µM | EC50 [2]: differential activation of M1-M5 muscarinic receptor transducers | Emax [3, 11]: 31.9% | Emax [4, 11]: 24.3% | Emax [5, 11]: 39% | Ki [6]: 0.178 µM | Ki [7]: 0.724 µM | Emax [8, 12]: 79.3% | Emax [8, 13]: 81% | Emax [8, 14]: 86.8% | Emax [8, 15]: 81.7% | Emax [9, 12]: 75.4% | Emax [9, 13]: 65.4% | Emax [9, 14]: 84% | Emax [9, 15]: 79.3% | Emax [9, 16]: 82.8% | Emax [10, 12]: 87.3% | Emax [10, 13]: 88.1% | Emax [10, 14]: 65.4% | Emax [10, 15]: 101% | Emax [10, 16]: 95.1% | Emax ([10]; HEK293, read-out: N-Desmethyl Xanomeline, Assay=Gz): 81.5%

CCCCCCOc1nsnc1C1=CCCN(C)C1 [Xanomeline]
Ki [1]: 0.0741 µM | EC50 [2]: differential activation of M1-M5 muscarinic receptor transducers | Emax ([3]; HEK293, read-out: Xanomeline): 35.4% | Emax ([4]; HEK293, read-out: Xanomeline): 25.6% | Emax ([5]; HEK293, read-out: Xanomeline): 41% | Ki [6]: 0.724 µM | Ki [7]: 0.1 µM | Emax [8, 17]: 49.5% | Emax [8, 18]: 65.8% | Emax [8, 19]: 40.2% | Emax [8, 20]: 37.4% | Emax [9, 18]: 28.5% | Emax [9, 20]: 25.7% | Emax [9, 21]: 19% | Emax [10, 17]: 64.6% | Emax [10, 18]: 81.2% | Emax [10, 19]: 30.2% | Emax [10, 20]: 99.1% | Emax [10, 21]: 97.2% | Emax ([10]; HEK293, read-out: Xanomeline, Assay=Gz): 60.4%
